{
  "source": "patent US20250345350A1",
  "about": "“TREATING PAIN ASSOCIATED WITH CENTRAL SENSITIZATION” (Medicon Pharmaceuticals, Inc., priority 2022, published 2025)",
  "key": {"[1]": {"test_system": "NTG-induced migraine in mice", "test": "PWT (von Frey), NTG-induced migraine mouse model, oral (Example 14)", "conditions": "30 min after oral dose given 30 min after NTG; PS 50 mg/kg, sulindac 33 mg/kg", "description": "In line with the earlier Examples, migraine was induced using 0.4 mg of NTG was administered sublingually in the form of a finely crushed 0.4 mg NTG tablet (Greenstone Brand).\nGroup 1: baseline (i.e, no NTG treatment, n=6) • 2. Group 2: vehicle (n=6) • 3. […] Group 4: sulindac (n=6)\nMechanical allodynia was determined using the method of von Frey filaments in line with that performed in the earlier Examples. […] The mechanical threshold, expressed as g, indicates the force of the von Frey filament to which the animal reacted."}, "[2]": {"test": "Preliminary in vivo evidence, topical PS hydrogel, PTPN (Example 6)"}, "[3]": {"test_system": "paclitaxel-induced central sensitization in C57/BL/6J mice", "test": "Cold allodynia (acetone test), paclitaxel model (Example 3)", "format": "in vivo, mouse", "conditions": "PS 5% for 15 days; day 15", "experimental": "To determine the outcome of treatment, assessment of mechanical allodynia was performed. […] Both methods of assessing allodynia are described in Toma W, et al. Neuropharmacology 2017; 117:305-15. Mechanical and cold allodynia are determined at least one day apart in the same animal.\nThe acetone test was used. Briefly, acetone was applied onto the plantar surface of each hind paw. The time each mouse spent licking, lifting, and/or shaking the hind paw recorded over 60 seconds was the score for cold allodynia. Measurements were performed on day-8 (before the first paclitaxel injection), the day of starting treatment (day 0) and then on day 15."}, "[4]": {"test": "PS to outer surface of the eyelid in a subject after LASIK (Example 22)", "format": "in vivo", "conditions": "topical PS to the outer surface of the eyelid, one subject"}, "[5]": {"test_system": "vincristine-induced pain associated with central sensitization in C57BL/6J mice", "test": "Mechanical allodynia (von Frey), vincristine-induced pain, topical PS 8% (Example 2)", "format": "in vivo, mouse", "excerpt": "(§1) Food and water were available ad libitum.\n(§2) Protocol for the Treatment of Established Pain Associated with Central Sensitization with PS\n(§3) Paw withdrawn, licking or shaking were considered positive responses."}, "[6]": {"test": "Preliminary in vivo evidence, topical PS hydrogel, migraine pain (Example 12)"}, "[7]": {"test_system": "chronic constriction injury-induced PTPN in C57BL/6J mice", "test": "PWT of operated limb, PS applied to contralateral hind paw, PTPN model (Example 8)", "format": "in vivo, mouse", "experimental": "Group 2: vehicle control (n=6) • 3. Group 3: PS 8% (n=6)\nThe PWT test was performed on day 4.\nAdditionally, in a second study, the speed at which PS can treat pain associated with PTPN was assessed by assessing the effect of PS on mechanical allodynia shortly after topical administration of PS. As above, PTPN was induced using chronic constriction injury, by ligating the left sciatic nerve, to induce neuropathic pain manifested as allodynia affecting the left limb of the mice. PS (as a 5% gel) was applied only once onto the contralateral (right) hind paw of mice, prior to determining mechanical allodynia on the operated limb at different time points post-dosing.\nGroup 2: PS 5%, assessed at t=0.5 h post-dosing (n=5) • 3. Group 3: PS 5%, assessed at t=1.0 h post-dosing (n=5) • 4. Group 4: PS 5%, assessed at t=2.0 h post-dosing (n=5)"}, "COX-2": {"target": "T1, COX-2 (Homo sapiens, UniProt P35354)", "T1 sequence (P35354 18-604)": "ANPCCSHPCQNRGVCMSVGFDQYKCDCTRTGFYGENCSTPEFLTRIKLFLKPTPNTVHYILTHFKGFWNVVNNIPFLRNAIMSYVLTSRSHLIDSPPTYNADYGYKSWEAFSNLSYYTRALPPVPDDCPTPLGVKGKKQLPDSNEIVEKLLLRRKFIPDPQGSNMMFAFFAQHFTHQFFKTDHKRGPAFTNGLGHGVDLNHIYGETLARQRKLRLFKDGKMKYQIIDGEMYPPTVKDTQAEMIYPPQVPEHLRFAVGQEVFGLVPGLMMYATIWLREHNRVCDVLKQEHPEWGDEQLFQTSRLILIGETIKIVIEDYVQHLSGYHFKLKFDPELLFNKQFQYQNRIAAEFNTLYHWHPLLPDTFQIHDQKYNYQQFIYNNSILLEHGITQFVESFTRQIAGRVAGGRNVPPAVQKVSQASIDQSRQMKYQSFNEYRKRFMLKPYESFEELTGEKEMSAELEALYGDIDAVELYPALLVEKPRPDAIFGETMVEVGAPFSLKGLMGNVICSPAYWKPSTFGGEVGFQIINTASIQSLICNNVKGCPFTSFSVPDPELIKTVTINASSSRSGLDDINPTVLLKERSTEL", "conditions": "background statement; cited from earlier work"}, "[8]": {"test_system": "oxaliplatin-induced pain associated with central sensitization in C57BL/6J mice", "test": "Mechanical allodynia (von Frey), oxaliplatin-induced pain, topical PS 8% (Example 2)", "format": "in vivo, mouse", "excerpt": "as §1, §2, §3"}, "[9]": {"test_system": "paclitaxel-induced CIPN in C57BL/6J mice", "test": "Thermal allodynia PWL (radiant heat), mouse model of CIPN, oral administration (Example 5)", "conditions": "day 16 of treatment, oral PS 50 mg/kg, sulindac 33 mg/kg", "quoted_text": "Group 1: paclitaxel plus vehicle (n=8) • 2. […] Group 3: paclitaxel pluse sulindac (n=8)\nThe animal is placed into a plastic box with an elevated glass floor. The beam of the lamp probe is focused on the paw plantar surface, until the animal withdraws the paw, and sensors in the device shut off the lamp. The thermal allodynia threshold is defined as the latency time until paw withdrawal (PWL) and expressed in seconds (sec) or thermal allodynia threshold."}, "[10]": {"test": "Preliminary in vivo evidence, topical PS hydrogel, PHN (Example 19)"}, "[11]": {"test_system": "paclitaxel-induced CIPN in C57BL/6J mice", "test": "PWT (von Frey), mouse model of CIPN, oral administration (Example 5)", "format": "in vivo", "conditions": "day 7; oral gavage three times a day for 7 days, PS 50 mg/kg, sulindac 33 mg/kg", "excerpt": "CIPN was induced in mice with chemotherapeutic agents using established protocols (Carozzi et al, 2010; Currie et al, 2019; Eldridge et al, 2020). […] This dosing regimen of paclitaxel produces pain associated with CIPN with time courses that are similar to those of pain after paclitaxel administration in cancer patients.\nGroup 1: naive mice (i.e. no paclitaxel, n=8) • 2. Group 2: paclitaxel only (n=8) • 3. Group 3: paclitaxel plus vehicle (n=8) • 4. […] Group 5: paclitaxel plus sulindac (n=8)\nThe PWT test was performed on day 7."}, "[12]": {"test": "Pharmacokinetics and biodistribution of PS upon oral administration (Example 27)", "format": "in vivo, rat", "conditions": "rats, single oral dose of PS 250 mg/kg; for AUC(0-t) / Cmax / half-life: Sprague-Dawley, rat; for AUC(0-t): read-out: AUC0-24 h; for Cmax: read-out: Cmax, Mean ± SEM", "description": "Approximately 800 μL of blood were collected through cardiac puncture and immediately centrifuged.\nTissue samples were harvested using separate dissection instruments for each tissue sample to avoid cross contamination, and snap frozen. The levels of the test drug were determined by HPLC.\nAs previously described (Wen et al, 2019), each plasma sample was mixed with double volume of acetonitrile and centrifuged at 13,200 rpm for 15 min. Tissue samples were weighed, ddH2O (100-300 μL, depending on tissue weight) was added, and they were homogenized. Following addition of acetonitrile (twice the volume of the homogenate), the mixture was sonicated for 10 min, centrifuged at 13,200 rpm for 15 min, and analyzed by HPLC, as reported (Wen et al, 2019).\nBriefly, the HPLC system consisted of a Waters Alliance 2695 Separations Module (Milford, MA, USA) equipped with a Waters 2998 photodiode array detector (328 nm) and a Thermo Hypersil BDS C18 column (150×4.6 mm, particle size 3 pm). The mobile phase consisted of a gradient between solvent A (formic acid, CH3CN, H2O (0.1:4.9:95 v/v/v)) and solvent B (CH3CN) at a flow rate of 1 mL-min−1 at 30° C. We applied gradient elution from 30 to 100% solvent B from 0-6 min, and it was maintained at 100% solvent B until 8 min."}, "[13]": {"test_system": "chronic constriction injury-induced peripheral neuropathy in C57BL/6J mice", "test": "PWT (von Frey), PTPN model, oral administration (Examples 9 and 10)", "conditions": "day 6; PS orally three times a day for 6 days at 100 mg/kg", "description": "Group 1: ligation only (i.e, surgical control with no treatment, n=9) • 2. Group 2: vehicle (n=9) • 3.\nMechanical allodynia was determined using the method of von Frey filaments in line with that performed in the earlier Examples. The PWT test was performed on day 6. The mechanical threshold, expressed as g, indicates the force of the von Frey filament to which the animal reacted."}},
  "note": "Where two headings read alike, the source gives them in different places.",
  "data": [
    {"smiles": "CCOP(=O)(OCC)OCCCCOC(=O)CC1=C(C)/C(=C/c2ccc([S+](C)[O-])cc2)c2ccc(F)cc21", "note": "(centres unmarked) [PS, phosphosulindac]", "values": [
      {"measurement": "PWT, g Mean ± SEM", "setting": "[1]", "value": "1.96 ± 0.49", "unit": "g"},
      {"measurement": "analgesic effect on neuropathic pain associated with PTPN", "setting": "[2]", "value": "striking analgesic effect"},
      {"measurement": "cold allodynia score (acetone test)", "setting": "[3]", "value": "3.1 ± 0.4", "unit": "s"},
      {"measurement": "effect on chronic pain after LASIK", "setting": "[4]", "value": "dramatically reduced chronic pain"},
      {"measurement": "increase of allodynia score compared to day 0", "setting": "[5]; PS 8% ointment 3x/day for 16 days", "value": 114, "unit": "%"},
      {"measurement": "mechanical allodynia score, mean±SEM", "setting": "[5]; day 16", "value": "1.5 ± 0.09", "unit": "g"},
      {"measurement": "analgesic effect on migraine pain", "setting": "[6]", "value": "striking analgesic effect"},
      {"measurement": "PWT, g Mean ± SEM", "setting": "[7]; day 4, operated left limb, PS 8% gel on contralateral (right) hind paw 3 times a day for 4 days", "value": "1.16 ± 0.04", "unit": "g"},
      {"measurement": "PWT, g Mean ± SEM", "setting": "[7]; t = 0.5 h post-dosing, PS 5% gel applied once on contralateral hind paw", "value": "1.24 ± 0.10", "unit": "g"},
      {"measurement": "PWT, g Mean ± SEM", "setting": "[7]; t = 1.0 h post-dosing, PS 5% gel applied once on contralateral hind paw", "value": "1.16 ± 0.16", "unit": "g"},
      {"measurement": "PWT, g Mean ± SEM", "setting": "[7]; t = 2.0 h post-dosing, PS 5% gel applied once on contralateral hind paw", "value": "1.10 ± 0.19", "unit": "g"},
      {"measurement": "inhibition of COX-2", "setting": "COX-2", "value": "does not inhibit"},
      {"measurement": "mechanical allodynia score, mean±SEM", "setting": "[8]; after PS treatment (day 22), PS 8% ointment 3x/day", "value": "1.8 ± 0.09", "unit": "g"},
      {"measurement": "mechanical allodynia score, mean±SEM", "setting": "[8]; day -15 baseline of PS group", "value": "1.76 ± 0.13", "unit": "g"},
      {"measurement": "PWL, sec Mean ± SEM", "setting": "[9]", "value": "10.78 ± 1.1", "unit": "s"},
      {"measurement": "analgesic effect on neuropathic pain associated with PHN", "setting": "[10]", "value": "striking analgesic effect"},
      {"measurement": "PWT, g Mean ± SEM", "setting": "[11]", "value": "0.99 ± 0.13", "unit": "g"},
      {"measurement": "AUC(0-t)", "setting": "[12]; cerebellum", "value": 0.2, "unit": "µM·h"},
      {"measurement": "Cmax", "setting": "[12]; cerebellum", "value": "300 ± 70", "unit": "nM"},
      {"measurement": "AUC(0-t)", "setting": "[12]; medulla", "value": 0.3, "unit": "µM·h"},
      {"measurement": "Cmax", "setting": "[12]; medulla", "value": "500 ± 100", "unit": "nM"},
      {"measurement": "half-life", "setting": "[12]; stomach", "value": 3.3, "unit": "h"},
      {"measurement": "AUC(0-t)", "setting": "[12]; stomach", "value": 1280, "unit": "µM·h"},
      {"measurement": "Cmax", "setting": "[12]; stomach", "value": "661000 ± 6500", "unit": "nM"},
      {"measurement": "half-life", "setting": "[12]; vagus nerve", "value": 3.3, "unit": "h"},
      {"measurement": "AUC(0-t)", "setting": "[12]; vagus nerve", "value": 1.7, "unit": "µM·h"},
      {"measurement": "Cmax", "setting": "[12]; vagus nerve", "value": "1200 ± 200", "unit": "nM"},
      {"measurement": "detection in the systemic circulation", "setting": "[12]", "value": "No PS was detected"},
      {"measurement": "PWT, g Mean ± SEM", "setting": "[13]", "value": "1.63 ± 0.38", "unit": "g"}
    ]}
  ]
}
